The text below walks through data of paper PMC2248166, “Quantitative peptide binding motifs for 19 human and mouse MHC class I molecules derived using positional scanning combinatorial peptide libraries” (Immunome Research, 2008).

In this test the target is HLA A*3001 (Homo sapiens, UniProt P04439, D140H/D185E/E176W/F33S/G80R/H175R/K168Q/R138E/R41S). Put plainly: biochemical. The test is classed as binding.

pIC50: −log10 of the molar value. Where a SMILES comes first, the peptide text is derived from it.

HLA A*3001, sequence (P04439 25-365 limits assumed, stated change not applied): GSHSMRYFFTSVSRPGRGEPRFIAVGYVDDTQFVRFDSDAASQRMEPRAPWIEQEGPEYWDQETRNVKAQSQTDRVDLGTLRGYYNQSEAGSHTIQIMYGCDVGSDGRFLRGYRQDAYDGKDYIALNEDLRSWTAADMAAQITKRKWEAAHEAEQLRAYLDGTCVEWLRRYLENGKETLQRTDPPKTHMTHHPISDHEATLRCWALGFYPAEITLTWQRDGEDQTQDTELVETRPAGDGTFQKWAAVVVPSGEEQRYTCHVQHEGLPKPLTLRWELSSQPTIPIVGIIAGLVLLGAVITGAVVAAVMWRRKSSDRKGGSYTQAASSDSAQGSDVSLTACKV

A word on the pIC50: it is the IC50 on a negative log10 scale, so that one unit is a factor of ten. Read a low pIC50 as a large IC50. `N=C(N)NCCC[C@H](NC(=O)CNC(=O)[C@@H](N)CCCCN)C(=O)N[C@@H](CCCNC(=N)N)C(=O)N[C@@H](CCC(N)=O)C(=O)N[C@@H](Cc1ccc(O)cc1)C(=O)N[C@@H](Cc1ccccc1)C(=O)N[C@@H](Cc1ccc(O)cc1)C(=O)NCC(=O)O` [3102.0035] (H-KGRRQYFYG-OH) gave a pIC50 of 8.54.
On to `CC[C@H](C)[C@H](NC(=O)[C@H](CCCCN)NC(=O)[C@@H](NC(=O)[C@@H](N)CCCNC(=N)N)[C@@H](C)O)C(=O)N1CCC[C@H]1C(=O)N[C@@H](CC(C)C)C(=O)N[C@@H](CO)C(=O)N[C@@H](CCCCN)C(=O)N[C@H](C(=O)O)C(C)C` [3102.0039] (H-RTKIPLSKV-OH), for which the pIC50 is 8.39.
For `CC[C@H](C)[C@H](NC(=O)CNC(=O)[C@H](CC(C)C)NC(=O)[C@@H]1CCCN1C(=O)CNC(=O)[C@H](CCCNC(=N)N)NC(=O)[C@@H](NC(=O)[C@@H](N)CCCNC(=N)N)[C@@H](C)O)C(=O)N[C@@H](CC(C)C)C(=O)O` [3102.0040] (H-RTRGPLGIL-OH) the value was 10.07; for `CC[C@H](C)[C@H](NC(=O)[C@H](CCCCN)NC(=O)[C@@H](NC(=O)[C@H](CO)NC(=O)[C@H](CCC(N)=O)NC(=O)[C@H](CC(=O)O)NC(=O)[C@H](CCCNC(=N)N)NC(=O)[C@H](CC(C)C)NC(=O)[C@@H](N)Cc1c[nH]cn1)[C@@H](C)CC)C(=O)O` [3102.0041] (H-HLRDQSIKI-OH), 7.82.
For `C[C@@H](O)[C@H](NC(=O)[C@H](CO)NC(=O)CNC(=O)[C@H](CCCNC(=N)N)NC(=O)[C@H](CC(N)=O)NC(=O)CN)C(=O)N[C@@H](CO)C(=O)N[C@@H](Cc1ccccc1)C(=O)N[C@@H](CCCCN)C(=O)O` [3102.0043] (H-GNRGSTSFK-OH) the value was 8.70; for `CC[C@H](C)[C@H](NC(=O)[C@H](C)NC(=O)[C@H](Cc1c[nH]cn1)NC(=O)[C@H](CO)NC(=O)[C@@H](N)CCCCN)C(=O)N[C@@H](Cc1ccc(O)cc1)C(=O)N[C@@H](Cc1c[nH]c2ccccc12)C(=O)N[C@@H](CC(=O)O)C(=O)N[C@@H](CCCCN)C(=O)O` [3102.0046] (H-KSHAIYWDK-OH), 7.96.
Next, `C[C@@H](O)[C@H](NC(=O)[C@@H](N)CCCNC(=N)N)C(=O)N[C@@H](Cc1c[nH]cn1)C(=O)N[C@@H](Cc1ccccc1)C(=O)N[C@@H](CO)C(=O)N[C@@H](CCC(N)=O)C(=O)N1CCC[C@H]1C(=O)N[C@@H](CO)C(=O)NCC(=O)O` [3102.0048] (H-RTHFSQPSG-OH): 7.82; `CC(C)C[C@H](NC(=O)[C@H](Cc1ccc(O)cc1)NC(=O)[C@H](CC(C)C)NC(=O)[C@H](Cc1ccccc1)NC(=O)[C@H](C)NC(=O)[C@H](Cc1ccccc1)NC(=O)[C@H](CCCNC(=N)N)NC(=O)[C@H](Cc1ccc(O)cc1)NC(=O)[C@@H](N)CCCNC(=N)N)C(=O)O` [3102.0049] (H-RYRFAFLYL-OH): 9.77.
Regarding `CC[C@H](C)[C@H](NC(=O)[C@H](Cc1c[nH]cn1)NC(=O)[C@H](Cc1ccccc1)NC(=O)[C@H](CO)NC(=O)[C@@H](NC(=O)[C@@H](N)CCCCN)[C@@H](C)O)C(=O)N[C@H](C(=O)N[C@@H](Cc1ccccc1)C(=O)N[C@@H](CC(C)C)C(=O)O)[C@@H](C)CC` [3102.0050] (H-KTSFHIIFL-OH), the pIC50 was 7.60. Against the preceding molecule, the pIC50 is 2.17 log units lower.
Next, `CC[C@H](C)[C@H](NC(=O)[C@H](CC(N)=O)NC(=O)[C@H](CC(=O)O)NC(=O)[C@H](CO)NC(=O)[C@H](CCCNC(=N)N)NC(=O)[C@@H](NC(=O)[C@@H](N)CCCCN)[C@@H](C)CC)C(=O)N[C@@H](CCCCN)C(=O)N[C@@H](CCCCN)C(=O)O` [3102.0051] (H-KIRSDNIKK-OH): 7.92; `CC[C@H](C)[C@H](NC(=O)[C@H](Cc1ccc(O)cc1)NC(=O)[C@@H](NC(=O)[C@H](CCCCN)NC(=O)[C@H](CCCCN)NC(=O)[C@H](Cc1ccccc1)NC(=O)[C@@H](N)CCCNC(=N)N)C(C)C)C(=O)N[C@@H](CC(C)C)C(=O)N[C@H](C(=O)O)C(C)C` [3102.0055] (H-RFKKVYILV-OH): 7.89; `CC[C@H](C)[C@H](NC(=O)[C@H](CCCNC(=N)N)NC(=O)[C@H](CC(N)=O)NC(=O)[C@@H](NC(=O)[C@H](CCC(=O)O)NC(=O)[C@H](CCCCN)NC(=O)[C@@H](NC(=O)[C@@H](N)CCCCN)[C@@H](C)O)[C@@H](C)O)C(=O)N[C@@H](Cc1ccc(O)cc1)C(=O)O` [3102.0056] (H-KTKETNRIY-OH): 7.96.
Next, `CC[C@H](C)[C@H](NC(=O)[C@H](CCCNC(=N)N)NC(=O)CNC(=O)[C@@H](N)CCCCN)C(=O)N[C@@H](CO)C(=O)N[C@@H](Cc1ccc(O)cc1)C(=O)N[C@@H](Cc1ccc(O)cc1)C(=O)N[C@@H](CCC(=O)O)C(=O)N[C@@H](CCSC)C(=O)O` [3102.0058] (H-KGRISYYEM-OH): 7.85.
In the case of `CSCC[C@H](NC(=O)[C@H](CC(N)=O)NC(=O)[C@H](CCCNC(=N)N)NC(=O)[C@@H](NC(=O)[C@@H](N)CCCNC(=N)N)[C@@H](C)O)C(=O)N[C@@H](Cc1ccccc1)C(=O)N[C@@H](CCCNC(=N)N)C(=O)N[C@@H](CCCCN)C(=O)N[C@@H](CCCCN)C(=O)O` [3102.0060] (H-RTRNMFRKK-OH), the negative logarithm of the IC50 (pIC50) was 10.05.
Next, `CC[C@H](C)[C@H](NC(=O)[C@H](C)NC(=O)[C@H](CO)NC(=O)[C@@H](NC(=O)[C@H](CO)NC(=O)[C@@H](NC(=O)[C@@H](N)CCCNC(=N)N)C(C)C)C(C)C)C(=O)N[C@@H](CC(C)C)C(=O)N[C@@H](CC(C)C)C(=O)O` [3102.0061] (H-RVSVSAILL-OH): 7.82; `CSCC[C@H](NC(=O)[C@H](CC(C)C)NC(=O)[C@@H](NC(=O)[C@@H](N)Cc1c[nH]cn1)C(C)C)C(=O)N[C@@H](Cc1c[nH]cn1)C(=O)N[C@@H](CO)C(=O)N1CCC[C@H]1C(=O)N[C@@H](CC(C)C)C(=O)N[C@H](C(=O)O)C(C)C` [3102.0062] (H-HVLMHSPLV-OH): 7.52; `CC[C@H](C)[C@H](N)C(=O)N[C@@H](CO)C(=O)N[C@@H](CCCNC(=N)N)C(=O)N[C@@H](CO)C(=O)N[C@@H](CCCNC(=N)N)C(=O)N[C@@H](CCCNC(=N)N)C(=O)N[C@@H](CC(C)C)C(=O)N[C@@H](Cc1ccccc1)C(=O)N[C@@H](C)C(=O)O` [3102.0065] (H-ISRSRRLFA-OH): 8.66.
`CC[C@H](C)[C@H](NC(=O)[C@@H](NC(=O)[C@@H](NC(=O)[C@H](CC(=O)O)NC(=O)[C@H](CCCCN)NC(=O)[C@@H](NC(=O)[C@H](C)N)C(C)C)C(C)C)[C@@H](C)O)C(=O)N[C@H](C(=O)N[C@@H](CCCCN)C(=O)O)[C@@H](C)O` [3102.0067] (H-AVKDVTITK-OH) had a pIC50 of 8.66.
Next, `CC(C)[C@H](NC(=O)[C@@H](N)Cc1c[nH]cn1)C(=O)N[C@@H](Cc1ccc(O)cc1)C(=O)N[C@@H](CC(=O)O)C(=O)N[C@@H](Cc1ccccc1)C(=O)N[C@@H](CCC(=O)O)C(=O)N1CCC[C@H]1C(=O)N[C@@H](Cc1ccc(O)cc1)C(=O)N[C@@H](Cc1ccc(O)cc1)C(=O)O` [3102.0068] (H-HVYDFEPYY-OH): 7.57.
Next, `CC[C@H](C)[C@H](NC(=O)[C@H](CCCNC(=N)N)NC(=O)[C@H](CCC(N)=O)NC(=O)[C@@H](N)CCSC)C(=O)N[C@H](C(=O)N[C@@H](CO)C(=O)N[C@@H](CC(C)C)C(=O)N[C@@H](CO)C(=O)N[C@H](C(=O)O)C(C)C)[C@@H](C)CC` [3102.0069] (H-MQRIISLSV-OH): 8.06; `CC(C)[C@H](NC(=O)[C@H](CO)NC(=O)[C@@H]1CCCN1C(=O)[C@H](CO)NC(=O)[C@H](C)NC(=O)[C@H](Cc1ccc(O)cc1)NC(=O)[C@H](Cc1ccccc1)NC(=O)CNC(=O)[C@@H](N)CCCCN)C(=O)O` [3102.0070] (H-KGFYASPSV-OH): 8.57; `CC(C)[C@H](NC(=O)[C@H](CCC(N)=O)NC(=O)[C@@H](NC(=O)[C@H](CCCNC(=N)N)NC(=O)[C@H](CCC(=O)O)NC(=O)[C@@H](NC(=O)[C@H](CCCNC(=N)N)NC(=O)[C@H](CO)NC(=O)[C@@H](N)CCCCN)C(C)C)C(C)C)C(=O)O` [3102.0075] (H-KSRVERVQV-OH): 7.96.
The molecule `CC[C@H](C)[C@H](NC(=O)[C@H](CC(N)=O)NC(=O)[C@@H](NC(=O)[C@@H](NC(=O)[C@H](Cc1ccccc1)NC(=O)[C@@H](NC(=O)[C@H](C)N)[C@@H](C)O)[C@@H](C)O)C(C)C)C(=O)N[C@@H](Cc1ccccc1)C(=O)N[C@@H](CCCCN)C(=O)O` [3102.0081] (H-ATFTVNIFK-OH) had a negative-log IC50 (pIC50) of 8.51.
Next, `CC(C)C[C@H](NC(=O)[C@H](CCCNC(=N)N)NC(=O)[C@@H](NC(=O)[C@@H](N)CCCNC(=N)N)C(C)C)C(=O)N[C@@H](CCCNC(=N)N)C(=O)N[C@@H](Cc1ccc(O)cc1)C(=O)N[C@@H](CCCNC(=N)N)C(=O)N[C@@H](CO)C(=O)NCC(=O)O` [3102.0082] (H-RVRLRYRSG-OH): 7.89; `CC[C@H](C)[C@H](NC(=O)[C@@H](N)CCCNC(=N)N)C(=O)N[C@@H](CCCNC(=N)N)C(=O)N[C@@H](Cc1ccccc1)C(=O)N[C@@H](Cc1ccccc1)C(=O)N[C@@H](Cc1ccc(O)cc1)C(=O)N[C@@H](CCCNC(=N)N)C(=O)N[C@@H](CCCCN)C(=O)N[C@@H](CCCCN)C(=O)O` [3102.0083] (H-RIRFFYRKK-OH): 9.77.
Next, `CC[C@H](C)[C@H](NC(=O)[C@H](CCSC)NC(=O)[C@H](CC(C)C)NC(=O)[C@@H]1CCCN1C(=O)[C@H](CCCNC(=N)N)NC(=O)[C@H](Cc1ccccc1)NC(=O)[C@@H](N)CCCCN)C(=O)N[C@@H](Cc1ccccc1)C(=O)N[C@@H](CCSC)C(=O)O` [3102.0084] (H-KFRPLMIFM-OH): 8.74; `CC[C@H](C)[C@H](NC(=O)[C@@H](NC(=O)[C@H](Cc1c[nH]c2ccccc12)NC(=O)[C@H](Cc1ccccc1)NC(=O)CNC(=O)[C@H](CO)NC(=O)[C@H](CCCNC(=N)N)NC(=O)[C@H](Cc1ccc(O)cc1)NC(=O)[C@@H](N)CCCNC(=N)N)[C@@H](C)CC)C(=O)O` [3102.0085] (H-RYRSGFWII-OH): 8.06; `CC[C@H](C)[C@H](NC(=O)[C@H](Cc1ccccc1)NC(=O)[C@H](Cc1ccccc1)NC(=O)[C@H](CO)NC(=O)[C@H](CC(N)=O)NC(=O)[C@H](CO)NC(=O)[C@H](CC(C)C)NC(=O)[C@@H](N)Cc1c[nH]cn1)C(=O)N[C@@H](CCCCN)C(=O)O` [3102.0086] (H-HLSNSFFIK-OH): 7.77.
